Reference: PubChem BioAssay (NCI)
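The compound was tested at five concentrations on cells cultured in 96-well plates, with a 48-hour exposure period. At the GI50, growth is halved. TGI denotes the concentration required for complete inhibition of growth.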

Columns and labels:
Assay in all cases: growth of human tumour cells (NCI), 48 h
SK-MEL-28 melanoma = system: SK-MEL-28 melanoma
UACC-62 melanoma = system: UACC-62 melanoma
NCI-H522 lung = system: NCI-H522 lung
KM12 colon = system: KM12 colon
SW-620 colon = system: SW-620 colon
UACC-257 melanoma = system: UACC-257 melanoma
DMS 114 small cell lung = system: DMS 114 small cell lung
HT29 colon = system: HT29 colon
M19-MEL melanoma = system: M19-MEL melanoma
HOP-92 NSCLC = system: HOP-92 NSCLC
LXFL 529 NSCLC = system: LXFL 529 NSCLC
HCT-15 colon = system: HCT-15 colon
OVCAR-4 ovarian = system: OVCAR-4 ovarian
HCT-116 colon = system: HCT-116 colon
SN12C renal = system: SN12C renal
SK-MEL-5 melanoma = system: SK-MEL-5 melanoma
IGROV1 ovarian = system: IGROV1 ovarian
NCI-H460 lung = system: NCI-H460 lung
U251 CNS = system: U251 CNS
SF-539 CNS = system: SF-539 CNS
ACHN renal = system: ACHN renal
OVCAR-8 ovarian = system: OVCAR-8 ovarian
LOX IMVI melanoma = system: LOX IMVI melanoma
HL-60(TB) leukemia = system: HL-60(TB) leukemia
MALME-3M melanoma = system: MALME-3M melanoma
OVCAR-5 ovarian = system: OVCAR-5 ovarian
A549 NSCLC = system: A549 NSCLC
OVCAR-3 ovarian = system: OVCAR-3 ovarian
SF-268 CNS = system: SF-268 CNS
DLD-1 colon = system: DLD-1 colon
NCI-H23 lung = system: NCI-H23 lung
SNB-78 CNS = system: SNB-78 CNS
M14 melanoma = system: M14 melanoma
SNB-19 CNS = system: SNB-19 CNS
COLO 205 colon = system: COLO 205 colon
SK-OV-3 ovarian = system: SK-OV-3 ovarian
RPMI-8226 leukemia = system: RPMI-8226 leukemia
KM20L2 colon = system: KM20L2 colon
SF-295 CNS = system: SF-295 CNS
786-0 renal = system: 786-0 renal
TK-10 renal = system: TK-10 renal
UO-31 renal = system: UO-31 renal
MOLT-4 leukemia = system: MOLT-4 leukemia
EKVX NSCLC = system: EKVX NSCLC
SNB-75 CNS = system: SNB-75 CNS
CCRF-CEM leukemia = system: CCRF-CEM leukemia
HOP-62 NSCLC = system: HOP-62 NSCLC
SK-MEL-2 melanoma = system: SK-MEL-2 melanoma
A498 renal = system: A498 renal
K-562 leukemia = system: K-562 leukemia

In the case of `NCCN.O=N[O-].O=N[O-].O=N[O-].O=N[O-].[Co+3].[K+]`, the GI50 (SK-MEL-28 melanoma) is reported as > 100 µM, the TGI (SK-MEL-28 melanoma) is reported as > 100 µM and the GI50 (UACC-62 melanoma) is reported as > 100 µM. The TGI (UACC-62 melanoma) was > 100 µM, the GI50 (NCI-H522 lung) was > 100 µM and the TGI (NCI-H522 lung) was > 100 µM. The GI50 (KM12 colon) was > 100 µM, the TGI (KM12 colon) was > 100 µM and the GI50 (SW-620 colon) was > 100 µM. For the same molecule, the TGI (SW-620 colon) was > 100 µM, the GI50 (UACC-257 melanoma) was > 100 µM and the TGI (UACC-257 melanoma) was > 100 µM. For the same molecule, the GI50 (DMS 114 small cell lung) was > 100 µM, the TGI (DMS 114 small cell lung) was > 100 µM and the GI50 (HT29 colon) was > 100 µM. The TGI (HT29 colon) was > 100 µM, the GI50 (M19-MEL melanoma) was > 100 µM and the TGI (M19-MEL melanoma) was > 100 µM. The GI50 (HOP-92 NSCLC) was 85.7 µM, the TGI (HOP-92 NSCLC) was > 100 µM and the GI50 (LXFL 529 NSCLC) was > 100 µM. The TGI (LXFL 529 NSCLC) was > 100 µM, the GI50 (HCT-15 colon) was > 100 µM and the TGI (HCT-15 colon) was > 100 µM. For the same molecule, the GI50 (OVCAR-4 ovarian) was > 100 µM, the TGI (OVCAR-4 ovarian) was > 100 µM and the GI50 (HCT-116 colon) was > 100 µM. The TGI (HCT-116 colon) was > 100 µM, the GI50 (SN12C renal) was > 100 µM and the TGI (SN12C renal) was > 100 µM. For the same molecule, the GI50 (SK-MEL-5 melanoma) was > 100 µM, the TGI (SK-MEL-5 melanoma) was > 100 µM and the GI50 (IGROV1 ovarian) was > 100 µM. For the same molecule, the TGI (IGROV1 ovarian) was > 100 µM, the GI50 (NCI-H460 lung) was > 100 µM and the TGI (NCI-H460 lung) was > 100 µM. For the same molecule, the GI50 (U251 CNS) was > 100 µM, the TGI (U251 CNS) was > 100 µM and the GI50 (SF-539 CNS) was > 100 µM. For the same molecule, the TGI (SF-539 CNS) was > 100 µM, the GI50 (ACHN renal) was > 100 µM and the TGI (ACHN renal) was > 100 µM. The GI50 (OVCAR-8 ovarian) was > 100 µM, the TGI (OVCAR-8 ovarian) was > 100 µM and the GI50 (LOX IMVI melanoma) was > 100 µM. The TGI (LOX IMVI melanoma) was > 100 µM, the GI50 (HL-60(TB) leukemia) was > 100 µM and the TGI (HL-60(TB) leukemia) was > 100 µM. For the same molecule, the GI50 (MALME-3M melanoma) was > 100 µM, the TGI (MALME-3M melanoma) was > 100 µM and the GI50 (OVCAR-5 ovarian) was > 100 µM. For the same molecule, the TGI (OVCAR-5 ovarian) was > 100 µM, the GI50 (A549 NSCLC) was > 100 µM and the TGI (A549 NSCLC) was > 100 µM. The GI50 (OVCAR-3 ovarian) was > 100 µM, the TGI (OVCAR-3 ovarian) was > 100 µM and the GI50 (SF-268 CNS) was > 100 µM. The TGI (SF-268 CNS) was > 100 µM, the GI50 (DLD-1 colon) was > 100 µM and the TGI (DLD-1 colon) was > 100 µM. The GI50 (NCI-H23 lung) was > 100 µM, the TGI (NCI-H23 lung) was > 100 µM and the GI50 (SNB-78 CNS) was > 100 µM. For the same molecule, the TGI (SNB-78 CNS) was > 100 µM, the GI50 (M14 melanoma) was > 100 µM and the TGI (M14 melanoma) was > 100 µM. The GI50 (SNB-19 CNS) was > 100 µM, the TGI (SNB-19 CNS) was > 100 µM and the GI50 (COLO 205 colon) was > 100 µM. For the same molecule, the TGI (COLO 205 colon) was > 100 µM, the GI50 (SK-OV-3 ovarian) was > 100 µM and the TGI (SK-OV-3 ovarian) was > 100 µM. The GI50 (RPMI-8226 leukemia) was > 100 µM, the TGI (RPMI-8226 leukemia) was > 100 µM and the GI50 (KM20L2 colon) was > 100 µM. For the same molecule, the TGI (KM20L2 colon) was > 100 µM, the GI50 (SF-295 CNS) was > 100 µM and the TGI (SF-295 CNS) was > 100 µM. The GI50 (786-0 renal) was > 100 µM, the TGI (786-0 renal) was > 100 µM and the GI50 (TK-10 renal) was > 100 µM. For the same molecule, the TGI (TK-10 renal) was > 100 µM, the GI50 (UO-31 renal) was > 100 µM and the TGI (UO-31 renal) was > 100 µM. The GI50 (MOLT-4 leukemia) was > 100 µM, the TGI (MOLT-4 leukemia) was > 100 µM and the GI50 (EKVX NSCLC) was > 100 µM. The TGI (EKVX NSCLC) was > 100 µM, the GI50 (SNB-75 CNS) was > 100 µM and the TGI (SNB-75 CNS) was > 100 µM. The GI50 (CCRF-CEM leukemia) was > 100 µM, the TGI (CCRF-CEM leukemia) was > 100 µM and the GI50 (HOP-62 NSCLC) was > 100 µM. The TGI (HOP-62 NSCLC) was > 100 µM, the GI50 (SK-MEL-2 melanoma) was > 100 µM and the TGI (SK-MEL-2 melanoma) was > 100 µM. For the same molecule, the GI50 (A498 renal) was > 100 µM, the TGI (A498 renal) was > 100 µM and the GI50 (K-562 leukemia) was > 100 µM. For the same molecule, the TGI (K-562 leukemia) was > 100 µM.
